Data on 13 molecules can be found in article PMC11487390, “Design and Synthesis of 1,3-Diarylpyrazoles and Investigation of Their Cytotoxicity and Antiparasitic Profile” (International Journal of Molecular Sciences, 2024).

What is called EC50 is the concentration needed to bring the measured effect to its halfway point.

A short description of data set [1]: Cytotoxicity assay, MRC-5SV2 cells, resazurin, 3 days. The class given is cell-based. The conditions noted are these: human, MRC-5SV2 human lung fibroblast cells, MRC-5 cells, highest concentration 64 µM. On the procedure: (§1) The series of final products (13–69) was investigated in vitro on the human fetal lung fibroblast cell line MRC-5 (Table 1) to assess cytotoxicity toward normal (i.e., non-malignant) human cells. […] As explained earlier, these are important pathogens for humans or cattle (T. b. brucei) and a persistent need for new therapeutics exists for these parasites. As a part of the antiparasitic tests, cytotoxicity against primary mouse macrophages (PMMs) was also evaluated. These murine cells serve as host cells for parasites in the L. infantum assay. Therefore, the murine macrophage assay not only offers additional cytotoxicological insight but is also essential to interpreting the readout of the L. infantum assay.
(§2) The MRC-5SV2 human lung fibroblast cell line was cultured in MEM + Earle’s salts-medium, supplemented with 2 mM L-glutamine, 16.5 mM NaHCO3, and 5% inactivated fetal calf serum. For evaluating the antileishmanial activity, the L. infantum MHOM/MA(BE)/67 strain was used. This strain was maintained in a Golden hamster (Mesocricetus auratus). Amastigotes were collected from the spleen of an infected donor hamster using differential centrifugation. Primary peritoneal mouse macrophages were used as host cells and were collected 2 days after peritoneal stimulation with a 2% potato starch suspension. For the intracellular T. cruzi assays, the Tulahuen CL2 strain was used that expresses β-galactosidase. The strain was maintained in MRC-5SV2 cells in MEM medium. The T. b. brucei Squib 427 strain or T. b. rhodesiense STIB-900 strain was used for screening against the extracellular African trypanosomes. The strains were maintained in Hirumi’s Modified Iscove’s medium-9 (HMI-9), supplemented with 10% inactivated fetal calf serum. All cultures and assays were performed at 37 °C with 5% CO2.
(§3) Compound stock solutions were prepared in 100% DMSO at 20 mM. The compounds were serially pre-diluted by robotic plate production (4-fold) in DMSO followed by a further (intermediate) dilution in demineralized water to assure a final in-test DMSO concentration of <1%. Identical test plates containing 10 µL of the different concentrations of each compound were produced for the different assays. For the cytotoxicity assays, 5 concentrations per compound were tested (64–16–4–1–0.25 µM). For the parasitic assays, 10 concentrations per compound were tested, ranging from 64 µM to 0.2 nM.
Assays were performed in sterile 96-well microtiter plates, each well containing 10 µL of the watery compound dilutions together with 190 µL of MRC-5SV2 inoculum (1.5 × 10^5 cells/mL). Cell growth was compared to untreated control wells (100% cell growth) and medium-control wells (0% cell growth). After 3 days incubation, MRC-5 viability was assessed fluorimetrically after addition of 50 μL resazurin per well (final concentration of 10 µg mL^−1). After 4 h at 37 °C, fluorescence was measured (λex 550 nm, λem 590 nm). The results were expressed as % reduction in cell growth/viability compared to positive (100% growth–0% inhibition) and negative (0% growth–100% inhibition) control wells from which EC50 values (50% effective concentrations) were derived using an excel macro that calculates the interpolation of the concentrations corresponding to the flanking points, just above and just below 50% inhibition.
A general note: The colour change of resazurin is a common sign of viable cells or microbes.

The test system of data set [2] is primary mouse macrophages (PMMs). The experiment in a line: Cytotoxicity against primary peritoneal mouse macrophages (PMM). The data set is classed as cell-based. To be noted: Macrophage. On the procedure:
as §1, §2
(§4) Primary peritoneal mouse macrophages (PMMs) were prepared in RPMI-1640 medium, supplemented with 2 mM L-glutamine, 16.5 mM NaHCO3, and 5% inactivated fetal calf serum. The macrophages are infected after 48 h with spleen-derived L. infantum amastigotes (3 × 10^4 PMM + 4.5 × 10^5 parasites/well). The compounds were added after 2 h of infection. After 5 days incubation, parasite burdens (mean number of amastigotes/macrophage) were assessed microscopically after staining with a 10% Giemsa solution and EC50 values were calculated.

Data set [3] concerns Trypanosoma cruzi Tulahuen CL2 strain. The experiment in a line: Intracellular T. cruzi assay in MRC-5 cells (β-galactosidase/CPRG, 7 days). The data set is classed as cell-based. The conditions noted are these: intracellular in MRC-5 cells. As for the experimental part: as §2, §3
MRC-5 cells were infected in 96-well plates using a harvested T. cruzi inoculum (4 × 10^3 MRC-5 cells/well + 4 × 10^4 parasites/well) and exposed to 10 µL of the compound dilutions (200 µL/well total volume). Parasite growth determined after 7 days of incubation and compared to untreated infected controls following the addition of the substrate CPRG (chlorophenolred ß-D-galactopyranoside): 50 µL/well of a stock solution containing 15.2 mg CPRG + 250 µL Nonidet in 100 mL PBS. The absorbance was measured spectrophotometrically at 540 nm after 4 h incubation at 37 °C and EC50 values were calculated.

Data set [4] deals with L. infantum MHOM/MA(BE)/67 strain. Nature of the data set: L. infantum intracellular amastigote assay in PMM (Giemsa, 5 days). The data set is classed as cell-based, Leishmania infantum. As for the experimental part: as §2, §3, §4
Data set [5] has as its system T. b. brucei Squib 427 strain. The experiment in a line: T. b. brucei growth assay (resazurin, 3 days). The data set is classed as cell-based, Trypanosoma brucei brucei. As for the experimental part:
as §2, §3
(§5) Parasite suspensions (1.5 × 10^4 T. b. brucei/well or 4 × 10^3 T. b. rhodesiense/well) in HMI-9 medium were exposed in a total volume of 200 µL to 10 µL of the compound dilutions Parasite growth was assessed fluorimetrically after 3 days of incubation by the addition of 50 µL resazurin per well. After 6 h (T. b. rhodesiense) or 24 h (T. b. brucei) at 37 °C, fluorescence was measured (λex 550 nm, λem 590 nm), from which viability and EC50 values could be determined.

The subject of data set [6] is T. b. rhodesiense STIB-900 strain. The experiment in a line: T. b. rhodesiense growth assay (resazurin, 3 days). The class given is cell-based, Trypanosoma brucei rhodesiense. On the procedure: as §2, §3, §5
The mark [7] stands for this setting: Trypanosoma cruzi, TULAHUEN, MRC5, 168 h.
Where [8] appears, read: Leishmania infantum, 120 h, read-out: L. inf. (EC50, µM), amastigotes in PMM, 5 days.
The mark [9] stands for this setting: Trypanosoma brucei, 72 h, 3 days, read-out: T. b. bruc. (EC50).
The mark [10] stands for this setting: Trypanosoma brucei, RHODESIENSE, 72 h, 3 days, read-out: T. b. rhod. (EC50).
The mark [11] stands for this setting: Leishmania infantum, 120 h, amastigotes in PMM, 5 days, read-out: L. inf. (EC50).
Setting [12] is: amastigotes in PMM, 5 days, read-out: L. inf. (EC50).

The structures appear in SMILES notation. Counter-ions that a name gives are not always drawn. Like-named read-outs stand apart in the source and are kept apart here.

As for `c1ccc(-n2cc(CNCCc3ccccn3)c(-c3ccc4c(c3)OCCO4)n2)cc1` [Compound 21, N-((3-(2,3-dihydrobenzo[b][1,4]dioxin-6-yl)-1-phenyl-1H-pyrazol-4-yl)methyl)-2-(pyridin-2-yl)ethan-1-amine hydrochloride], in data set [1], the response was half-maximal at 29.1 µM (EC50 at 3 days). Besides, the half-maximal effective concentration (EC50) is 32 µM in data set [2]; less than 10 µM in data set [3] (setting [7]); 7.31 µM in data set [3]; less than 10 µM in data set [4] (setting [8]); 5.06 µM in data set [4] (read-out: L. inf. (EC50), amastigotes in PMM, 5 days).

Take `O=C(c1cn(-c2ccccc2)nc1-c1ccc2c(c1)OCCO2)N1CCOCC1` [Compound 40, (3-(2,3-dihydrobenzo[b][1,4]dioxin-6-yl)-1-phenyl-1H-pyrazol-4-yl)(morpholino)methanone]: the EC50 at 3 days in data set [1] is greater than 64 µM. In addition, the concentration for a half-maximal effect (EC50) in data set [5] (setting [9]), in data set [2], in data set [6] (setting [10]), in data set [3] (setting [7]) and in data set [4] (setting [11]) was greater than 64 µM each time.

In turn, `O=C(NCCc1ccncc1)c1cn(-c2ccccc2)nc1-c1ccc2c(c1)OCCO2` [Compound 35, 3-(2,3-dihydrobenzo[b][1,4]dioxin-6-yl)-1-phenyl-N-(2-(pyridin-4-yl)ethyl)-1H-pyrazole-4-carboxamide] had a concentration for a half-maximal effect (EC50) at 3 days in data set [1] greater than 64 µM. For the same molecule, the concentration for a half-maximal effect (EC50) in data set [5] (setting [9]) is 23.2 µM; in data set [2], greater than 64 µM; in data set [6] (setting [10]), 1.28 µM; in data set [3] (setting [7]), 4.33 µM; in data set [4] (setting [11]), greater than 64 µM.

`O=C(NCc1ccc(F)cc1)c1cn(-c2ccccc2)nc1-c1ccc2c(c1)OCCO2` [Compound 33, 3-(2,3-dihydrobenzo[b][1,4]dioxin-6-yl)-N-(4-fluorobenzyl)-1-phenyl-1H-pyrazole-4-carboxamide] showed a concentration giving a half-maximal response (EC50) at 3 days in data set [1] of 64 µM. For the same molecule, the EC50 in data set [5] (setting [9]) was greater than 64 µM; in data set [2] it was greater than 64 µM; in data set [6] (setting [10]) it was 4.23 µM; in data set [3] (setting [7]), greater than 64 µM; in data set [4] (setting [11]), 8.3 µM; in data set [4] (setting [12]), 9.51 µM.

Take `Fc1ccc(NCc2cn(-c3ccccc3)nc2-c2ccc3c(c2)OCCO3)cc1` [Compound 14, N-((3-(2,3-dihydrobenzo[b][1,4]dioxin-6-yl)-1-phenyl-1H-pyrazol-4-yl)methyl)-4-fluoroaniline]: the EC50 at 3 days in data set [1] was greater than 64 µM. In addition, the EC50 in data set [5] (3 days, read-out: T. b. bruc. (EC50)) was 8.18 µM; in data set [5] (setting [9]), less than 10 µM; in data set [2], greater than 64 µM; in data set [6] (3 days, read-out: T. b. rhod. (EC50)), 6.35 µM; in data set [6] (setting [10]) it was less than 10 µM; in data set [4] (setting [11]) it was less than 10 µM. Further, in data set [4] (setting [12]), the EC50 was found to be 6.96 µM.

`c1ccc(Cn2cc(COCc3cn(-c4ccccc4)nc3-c3ccc4c(c3)OCCO4)nn2)cc1` [Compound 48, 1-benzyl-4-(((3-(2,3-dihydrobenzo[b][1,4]dioxin-6-yl)-1-phenyl-1H-pyrazol-4-yl)methoxy)methyl)-1H-1,2,3-triazole] returned an EC50 at 3 days in data set [1] greater than 64 µM. Moreover, the concentration for a half-maximal effect (EC50) in data set [5] (setting [9]) was greater than 64 µM; in data set [6] (setting [10]), 1.78 µM; in data set [3] (setting [7]), greater than 64 µM; in data set [4] (setting [11]), 32.5 µM.

In data set [1], `CNC(=O)c1cc(Oc2ccc(NCc3cn(-c4ccccc4)nc3-c3ccc4c(c3)OCO4)cc2)ccn1` [Compound 60, 4-(4-(((3-(benzo[d] [1,3]dioxol-5-yl)-1-phenyl-1H-pyrazol-4-yl)methyl)amino)phenoxy)-N-methylpicolinamide] yielded a half-maximal effective concentration (EC50) at 3 days of 60.7 µM. Besides, the EC50 in data set [5] (setting [9]) is greater than 64 µM; in data set [6] (setting [10]) it was 5.18 µM; in data set [3] (setting [7]), greater than 64 µM; in data set [4] (setting [11]) it was 32.5 µM.

Regarding `O=C(NCc1cn(-c2ccccc2)nc1-c1ccc2c(c1)OCCO2)Nc1ccc(F)cc1` [Compound 54, 1-((3-(2,3-dihydrobenzo[b][1,4]dioxin-6-yl)-1-phenyl-1H-pyrazol-4-yl)methyl)-3-(4-fluorophenyl)urea], the EC50 at 3 days in data set [1] is greater than 64 µM. The EC50 in data set [5] (setting [9]), in data set [6] (setting [10]), in data set [3] (setting [7]) and in data set [4] (setting [11]) was greater than 64 µM each time.

In data set [1], `FC(F)c1cn(-c2ccccc2)nc1-c1ccc2c(c1)OCCO2` [Compound 53, 4-(difluoromethyl)-3-(2,3-dihydrobenzo[b][1,4]dioxin-6-yl)-1-phenyl-1H-pyrazole] registered a concentration for a half-maximal effect (EC50) at 3 days of 21.8 µM. Besides, the EC50 in data set [5] (setting [9]) worked out at 30.3 µM; in data set [6] (setting [10]), 19 µM; in data set [3] (setting [7]), 6.44 µM; in data set [4] (setting [11]), 32.5 µM.

The molecule `c1ccc(Cc2cn(-c3ccccc3)nc2-c2ccc3c(c2)OCCO3)cc1` [Compound 49, 4-benzyl-3-(2,3-dihydrobenzo[b][1,4]dioxin-6-yl)-1-phenyl-1H-pyrazole] returned an EC50 at 3 days in data set [1] of 59.5 µM. Further, the EC50 in data set [5] (setting [9]) stood at 29.3 µM; in data set [6] (setting [10]), 16.5 µM; in data set [3] (setting [7]) it was 7.35 µM; in data set [4] (setting [11]), 38.1 µM.

With `c1ccc(-n2cc(CNCCc3ccccn3)c(-c3ccc4c(c3)OCO4)n2)cc1` [Compound 59, N-((3-(benzo[d] [1,3]dioxol-5-yl)-1-phenyl-1H-pyrazol-4-yl)methyl)-2-(pyridin-2-yl)ethan-1-amine hydrochloride], a half-maximal response in data set [1] (EC50 at 3 days) required 26.6 µM. In addition, the EC50 in data set [5] (Trypanosoma brucei, 72 h, read-out: T. b. bruc. (EC50, µM), 3 days) was found to be 1.64 µM; in data set [6] (Trypanosoma brucei, RHODESIENSE, 72 h, read-out: T. b. rhod. (EC50, µM), 3 days) it was 1.61 µM; in data set [3] (setting [7]), 6.71 µM; in data set [4] (setting [8]) it was 8.06 µM.

Molecule `COc1ccc(-c2nn(-c3ccccc3)cc2CN2CCCC2)cc1` [Compound 65, 3-(4-methoxyphenyl)-1-phenyl-4-(pyrrolidin-1-ylmethyl)-1H-pyrazole oxalate] came in with a 50% effective concentration (EC50) at 3 days in data set [1] of 32 µM. For the same molecule, the EC50 in data set [5] (setting [9]) turned out to be 6.87 µM; in data set [6] (setting [10]), 6.43 µM; in data set [3] (setting [7]), 28.9 µM; in data set [4] (setting [11]), 33.2 µM.

`Fc1ccc(-n2cc(COCc3cn(-c4ccccc4)nc3-c3ccc4c(c3)OCCO4)nn2)cc1` [Compound 47, 4-(((3-(2,3-dihydrobenzo[b][1,4]dioxin-6-yl)-1-phenyl-1H-pyrazol-4-yl)methoxy)methyl)-1-(4-fluorophenyl)-1H-1,2,3-triazole]: the EC50 at 3 days in data set [1] worked out at 51.5 µM. The EC50 in data set [5] (setting [9]) was 55.9 µM; in data set [6] (setting [10]) it was 5.56 µM; in data set [3] (setting [7]), 64 µM; in data set [4] (setting [11]), greater than 64 µM.
